The values that follow are results of earlier work, collected in US11577235B1, “Layered catalyst reactor systems and processes for hydrotreatment of hydrocarbon feedstocks” (Chevron U.S.A. Inc., priority 2021, dated 2023).

Broadly, the LD50 is the dose at which mortality reaches 50%.

The test system of this data set is rats. The settings on record: single oral dose to rats.

Take `O=CC(=O)O` [glyoxylic]: the 50% lethal dose (LD50) is 3000 mg/kg.

On to thio-diglycolic acid, for which the LD50 is 500 mg/kg.
